Where “and” joins values, the source holds several entries; their conditions need not be identical. Equal entries are not always repeated.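 Method: 48-hour compound exposure of cells in 96-well plates, five concentrations, linear interpolation of endpoints. GI50 marks 50% less growth.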 Calls of active or inactive are those of the source. Cut-off read from the data, not from the text of the source: active = GI50 up to about 1.1 µM and inactive = higher.
Assays:
Experiment in all cases: NCI-60 cell line screen, 48 h
HCC 2998 = test system: HCC 2998
KM12 = test system: KM12
HOP-62 = test system: HOP-62
HCT-116 = test system: HCT-116
OVCAR-5 = test system: OVCAR-5
SNB-78 = test system: SNB-78
M19-MEL = test system: M19-MEL
UO-31 = test system: UO-31
OVCAR-4 = test system: OVCAR-4
SK-MEL-5 = test system: SK-MEL-5
NCI-H226 = test system: NCI-H226
SK-OV-3 = test system: SK-OV-3
HL-60 = test system: HL-60
786-0 = test system: 786-0
COLO 205 = test system: COLO 205
UACC-257 = test system: UACC-257
SF-539 = test system: SF-539
CCRF-CEM = test system: CCRF-CEM
SF-268 = test system: SF-268
NCI-H522 = test system: NCI-H522
IGROV-1 = test system: IGROV-1
HT-29 = test system: HT-29
HOP-92 = test system: HOP-92
KM-20L2 = test system: KM-20L2
SN12C = test system: SN12C
DLD-1 = test system: DLD-1
LXFL 529 = test system: LXFL 529
HCT-15 = test system: HCT-15
OVCAR-3 = test system: OVCAR-3
A549 = test system: A549
ACHN = test system: ACHN
SR = test system: SR
SNB-19 = test system: SNB-19
A498 = test system: A498
SK-MEL-28 = test system: SK-MEL-28
OVCAR-8 = test system: OVCAR-8
MOLT-4 = test system: MOLT-4
NCI-H23 = test system: NCI-H23
LOX IMVI = test system: LOX IMVI
XF498 = test system: XF498
DMS-273 = test system: DMS-273
U-251 = test system: U-251
RPMI-8226 = test system: RPMI-8226
Malme-3M = test system: Malme-3M
M14 = test system: M14
SW-620 = test system: SW-620
TK-10 = test system: TK-10
EKVX = test system: EKVX
SNB-75 = test system: SNB-75
UACC-62 = test system: UACC-62
RXF 393 = test system: RXF 393
SF-295 = test system: SF-295
K562 = test system: K562
CAKI-1 = test system: CAKI-1
NCI-H460 = test system: NCI-H460
SK-MEL-2 = test system: SK-MEL-2
DMS-114 = test system: DMS-114

Measured: GI50

COC1=CC(C2c3cc4c(cc3[C@@H](Nc3ccc(F)cc3)C3COC(=O)[C@H]23)OCO4)=CC(=O)C1=O (some centres undefined)
active: SR 506 nM | MOLT-4 0.524 µM | NCI-H460 608 nM
inactive: HCC 2998 16.1 µM | KM12 13.3 µM | HOP-62 1.61 µM | HCT-116 9.89 µM | OVCAR-5 19.9 µM | SNB-78 > 51.9 µM | M19-MEL 15.4 µM | UO-31 7.66 µM | OVCAR-4 39.8 µM | SK-MEL-5 9.35 µM | NCI-H226 11.1 µM | SK-OV-3 4.46 µM | HL-60 2.11 µM | 786-0 3.29 µM | COLO 205 15.7 µM | UACC-257 37.6 µM | SF-539 4.37 µM | CCRF-CEM 2.49 µM | SF-268 8.05 µM | NCI-H522 4.33 µM | IGROV-1 14.4 µM | HT-29 20.2 µM | HOP-92 6.92 µM | KM-20L2 25.7 µM | SN12C 4.32 µM | DLD-1 26.2 µM | LXFL 529 11.6 µM | OVCAR-3 27.7 µM | A549 1.36 µM | ACHN 3.1 µM | SNB-19 5.57 µM | A498 2.43 µM | SK-MEL-28 19.2 µM | OVCAR-8 10.1 µM | NCI-H23 2.88 µM | LOX IMVI 7.78 µM | XF498 5.98 µM | DMS-273 2.93 µM | U-251 2.78 µM | RPMI-8226 10.5 µM | Malme-3M 13.7 µM | M14 7.82 µM | SW-620 12.7 µM | TK-10 19.2 µM | EKVX 20.5 µM | SNB-75 6.81 µM | UACC-62 5.68 µM | RXF 393 50.2 µM | SF-295 3.21 µM | K562 10.4 µM | CAKI-1 4.48 µM
11.1 µM: HCT-15

COC(=O)C(C(=O)C(=O)Nc1ccc(C(F)(F)F)cc1[N+](=O)[O-])c1csc(-n2nc(-c3ccccc3)cc2-c2ccccc2)n1 (centres undefined)
inactive: HCC 2998 > 100 µM | SK-MEL-2 > 100 µM | KM12 > 100 µM | HOP-62 > 100 µM | HCT-116 > 100 µM | OVCAR-5 > 100 µM | SNB-78 > 100 µM | M19-MEL > 100 µM | UO-31 > 100 µM | OVCAR-4 > 100 µM | NCI-H226 > 100 µM | SK-OV-3 > 100 µM | HL-60 > 100 µM | 786-0 > 100 µM | COLO 205 > 100 µM | UACC-257 > 100 µM | SF-539 > 100 µM | CCRF-CEM > 100 µM | DMS-114 > 100 µM | NCI-H522 > 100 µM | IGROV-1 > 100 µM | HT-29 > 100 µM | KM-20L2 > 100 µM | SN12C > 100 µM | LXFL 529 > 100 µM | OVCAR-3 > 100 µM | A549 > 100 µM | SR > 100000 nM | SNB-19 > 100 µM | A498 > 100 µM | OVCAR-8 > 100 µM | MOLT-4 > 100 µM | NCI-H23 > 100 µM | LOX IMVI > 100 µM | DMS-273 > 100 µM | U-251 > 100 µM | RPMI-8226 > 100 µM | Malme-3M > 100 µM | M14 > 100 µM | SW-620 > 100 µM | TK-10 > 100 µM | SNB-75 > 100 µM | UACC-62 > 100 µM | RXF 393 > 100 µM | SF-295 > 100 µM | K562 > 100 µM | CAKI-1 > 100 µM | NCI-H460 > 100000 nM
> 100 µM: HCT-15

Cc1ccc(SSCC(O)C(O)CSSc2ccc(C)cc2)cc1 (centres undefined)
inactive: HCC 2998 15 µM and 14.2 µM | SK-MEL-2 8.18 µM | KM12 9.48 µM and 11.1 µM | HCT-116 12.1 µM and 7.28 µM | OVCAR-5 16.6 µM and 22.8 µM | SNB-78 13.7 µM | M19-MEL 16.5 µM and 11.6 µM | UO-31 4.08 µM and 4.26 µM | OVCAR-4 13.4 µM and 14.3 µM | SK-MEL-5 7.31 µM and 12.6 µM | NCI-H226 15.2 µM and 15.1 µM | UACC-257 15.6 µM and 14.4 µM | SF-539 3.42 µM and 3.02 µM | CCRF-CEM 1.14 µM | NCI-H522 1.82 µM and 1.76 µM | IGROV-1 2.99 µM and 2.14 µM | HT-29 13.3 µM and 18.5 µM | HOP-92 17 µM and 11.9 µM | KM-20L2 13.1 µM and 11.1 µM | DLD-1 15 µM and 14.1 µM | LXFL 529 10.6 µM and 6.01 µM | A549 10.6 µM and 10.9 µM | ACHN 11.2 µM and 15.7 µM | SR 3.55 µM and 3.29 µM | SNB-19 15.1 µM and 14.6 µM | A498 4.51 µM | SK-MEL-28 13.9 µM and 14.9 µM | NCI-H23 5.94 µM and 11.3 µM | LOX IMVI 1.3 µM and 1.89 µM | XF498 17.2 µM and 13.7 µM | U-251 2.03 µM and 2.23 µM | RPMI-8226 3.66 µM and 3.26 µM | Malme-3M 19 µM and 15.3 µM | M14 7.29 µM and 5.58 µM | SW-620 7.55 µM and 14.2 µM | TK-10 15.6 µM and 13.2 µM | EKVX 14.1 µM and 18.1 µM | RXF 393 3.92 µM and 4.15 µM | NCI-H460 17.5 µM and 18.1 µM
14.1 µM and 13.1 µM: HCT-15
